3 compounds from patent US20080214563A1, “Benzimidazole Thiophene Compounds As Plk Modulators” (priority 2005, published 2008) can be followed below.

Some results are limits rather than exact numbers.

A short description of data set [1]: Intravenous pharmacokinetics in CD-1 mouse. The class given is in vivo. The conditions noted are these: plasma, iv bolus, male CD-1 mouse, dose 1.9-7.4 mg/kg per compound (Table 3); for clearance: read-out: Plasma CL.
The subject of the next data set is Colo 205. Put plainly: Cell-Titer Glo Cell Growth Inhibition Assay, COLO205. The data set is classed as cell-based. The conditions noted are these: Homo sapiens, CellTiter-Glo, 72 h, read-out: CTG COLO205 IC50. How it is done: (§1) A549-L (human lung), BT474 (human breast), Colo 205 (human colon), H1299 (human lung), Hela (human cervix), HCT-116 (human colon), HN5 (human head and neck), HT29 (human colon), LNCap (human prostate), MCF7 (human breast), MDA-MB468 (human breast), MX-1 (human breast), RPMI 8226 (human peripheral blood), SKOV3 (human ovary) and P388 (murine leukemia) cell lines were cultured in RPMI1640 containing 10% fetal bovine serum at 37° C. in a 5% CO2 incubator. Cell lines were split into T75 flasks (Falcon #353136) two to three days prior to assay set up at density which yields approximately 70-80% confluency at time of harvest for assay. Cells were harvested using 0.25% trypsin with EDTA (Glibco/Invitrogen #25200-056), Cell counts were performed on cell suspensions using Trypan Blue exclusion staining, cells were then plated in 105 uL of culture media per well at the following densities in 96 well Costar #3916 black flat bottom plates: All human cell lines were plated at 500 cells/well. P388 were plated at 250 cells/well. All plates were placed at 5% CO2 37° C. overnight and then test compounds were added the following day. One plate of each cell type is treated with CellTiter-Glo (Promega #G7573) for a day 0 proliferation measurement and read as described below. The test compounds are prepared in clear U bottom polypropylene 96 well plates (Falcon #35-1190 with consecutive two fold dilutions. 9 uL of these dilutions was added into each well of the cell plates. The final concentration of DMSO in all wells is 0.15%. Cells were incubated at 37° C., 5% CO2 for 72 h. Following 72 h of incubation with compounds each plate was developed and read. CellTiter-Glo reagent was added to assay plates using a volume equivalent to the cell culture volume in the wells. Plates were shaken for approximately two minutes and incubated at room temperature for approximately 15 min and the chemiluminescent signal is read on the Victor V or Envison 2100 reader. […] Concentration of compound that inhibited 50% of cell growth (IC50) was analysis by 4 or 6 parameter fit of data using XLfit, value of no cell addition was subtracted from all samples for background.

The next data set deals with HCT116. In words: Methylene Blue Cell Growth Inhibition Assay, HCT116. The data set is classed as cell-based. Conditions: Homo sapiens, HCT-116, 72 h, read-out: MEB HCT116 IC50. How it is done: Normal human foreskin fibroblasts (HFF), human colon (HCT116, RKO), lung (H460, A549) and breast (MCF7) tumor cell lines were cultured in high glucose DMEM (Life Technologies) containing 10% fetal bovine serum (FBS) at 37° C. in a humidified 5% CO2, 95% air incubator. Cells were harvested using trypsin/EDTA, counted using a haemocytometer, and plated in 100 μL of culture media per well, at the following densities, in a 96-well tissue culture plate (Falcon 3075): HFF 5,000 cells/well, HCT116 3,000 cells/well, RKO 2,500 cells/well, H460 2,500 cells/well, A549 5,000 cells/well, MCF7 4,000 cells/well. The next day, compounds were diluted in low glucose DMEM containing 100 μg/mL gentamicin, at twice the final required concentration, from 10 mM stock solutions in DMSO. 100 μL/well of these dilutions were added to the 100 μL of media currently in the assay plates. Medium containing 0.6% DMSO was added to control wells. The final concentration of DMSO in all wells was 0.3%. Cells were incubated at 37° C., 5% CO2 for 72 h. Medium was removed by aspiration. Cell biomass was estimated by staining cells with 80 μL per well methylene blue (Sigma M9140, 0.5% in 50:50 ethanol:water), and incubation at room temperature for 30-60 min. Stain was removed by aspiration and the plates rinsed by immersion in water, then air-dried. To release stain from the cells, 100 μL of solubilization solution was added (1% N-lauroyl sarcosine, Sodium salt, Sigma L5125, in PBS), and plates were shaken gently for about 30 min. Optical density at 620 nm was measured on a microplate reader. Percent inhibition of cell growth was calculated relative to vehicle treated control wells. Concentration of compound that inhibits 50% of cell growth (IC50) was interpolated using nonlinear regression (Levenberg-Marquardt) and the equation, y=Vmax*(1−(x/(K+x)))+Y2, where “K” was equal to the IC50.

The subject of another data set is HCT-116. Put plainly: Cell-Titer Glo Cell Growth Inhibition Assay, HCT116. The conditions noted are these: Homo sapiens, CellTiter-Glo, 72 h, read-out: CTG HCT116 IC50. The class given is cell-based. In short, it runs like this:
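Human tumour cells in RPMI1640 + 10% FBS, plated at 500 cells/well, rested overnight, then given two-fold compound dilutions (0.15% DMSO) for 72 h at 37° C, 5% CO2. CellTiter-Glo luminescence read against a day-0 plate; IC50 from 4- or 6-parameter fit after no-cell background subtraction.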
A general note: In ATP-based viability assays light output follows the ATP content of the culture.

The test system of a further data set is HT29. In words: Cell-Titer Glo Cell Growth Inhibition Assay, HT29. The class given is cell-based. Conditions: Homo sapiens, HT-29, CellTiter-Glo, 72 h, read-out: CTG HT29 IC50. The protocol: as §1
The test system of a further data set is P388. In words: Cell-Titer Glo Cell Growth Inhibition Assay, P388. The class given is cell-based, murine. Conditions: Mus musculus, CellTiter-Glo, 72 h, read-out: CTG P388 IC50. How it is done: as §1

The compound `C[C@@H](Oc1cc(-n2cnc3cc(-c4ccc(N5CCNCC5)nc4)ccc32)sc1C(N)=O)c1ccccc1C(F)(F)F` [Example 1, 5-{5-[6-(1-piperazinyl)-3-pyridinyl]-1H-benzimidazol-1-yl}-3-({(1R)-1-[2-(trifluoromethyl)phenyl]ethyl}oxy)-2-thiophenecarboxamide] had an area under the curve AUC(0-t) in data set [1] of 3420 ng·h/mL. Besides, in data set [1], the clearance stood at 23.5 mL/min/kg. Further, the IC50 with Colo 205 is under 100 nM; in the data set with HCT116 it was 100 to 1000 nM; with HCT-116, under 100 nM; with HT29, under 100 nM; in the data set with P388, 100 to 1000 nM.

Consider `C[C@@H](Oc1cc(-n2cnc3cc(-c4ccc(N5CCNCC5)nc4)ccc32)sc1C(N)=O)c1ccccc1Cl` [Example 7, 3-{[(1R)-1-(2-Chlorophenyl)ethyl]oxy}-5-{5-[6-(1-piperazinyl)-3-pyridinyl]-1H-benzimidazol-1-yl}-2-thiophenecarboxamide], for which, in data set [1], the area under the curve AUC(0-t) worked out at 3740 ng·h/mL. In addition, the clearance in data set [1] stood at 33 mL/min/kg. The IC50 in the data set with Colo 205 was under 100 nM; with HCT116, 100 to 1000 nM; in the data set with HCT-116, under 100 nM; in the data set on HT29, under 100 nM; in the data set on P388 it was under 100 nM.

In the case of `C[C@@H](Oc1cc(-n2cnc3cc(-c4cnn(C)c4)ccc32)sc1C(N)=O)c1ccccc1Cl` [Example 9, 3-{[(1R)-1-(2-Chlorophenyl)ethyl]oxy}-5-[5-(1-methyl-1H-pyrazol-4-yl)-1H-benzimidazol-1-yl]-2-thiophenecarboxamide], the AUC(0-t) in data set [1] was found to be 5760 ng·h/mL. Further, in data set [1], the clearance is 12.1 mL/min/kg. Besides, the half-inhibitory concentration (IC50) is under 100 nM with Colo 205; under 100 nM with HCT116; under 100 nM with HCT-116; under 100 nM in the data set with HT29; 100 to 1000 nM in the data set on P388.

In general, AUC(0-t) refers to exposure summed from dosing to a finite time, without extrapolation to infinity. Low values mean less exposure, high ones more exposure. For orientation: IC50 means the point on the concentration scale where inhibition reaches its midpoint.
